Results reported in article PMC6150365, “Simultaneous Determination of Seven Components in Rat Plasma by the UPLC-MS/MS Method and Application of Pharmacokinetic Studies to SimiaoYong’an Decoction” (Molecules : A Journal of Synthetic Chemistry and Natural …, 2017).

Assay: Pharmacokinetic study in rats after oral administration of SYD extract and its single and combined TCM extracts (UPLC-MS/MS of plasma)
Details: male, Sprague-Dawley, rat, plasma, po, n = 6; for AUC(0-inf) / Cmax / MRT last / MRT inf / Tmax / AUC(0-t): rat plasma; for MRT last: MRT(0–t); for MRT inf: MRT(0–∞); for half-life: t1/2, rat plasma
[1] = 2.14 g·kg^−1 (extract), oral LJ + GU extract
[2] = 2.15 g/kg, oral LJ extract 2.15 g/kg
[3] = 3.29 g·kg^−1 (extract), oral LJ + AS extract
[4] = 3.29 g·kg^−1 extract, oral LJ + AS extract
[5] = 4.01 g·kg^−1 (extract), oral LJ + AS + GU extract
[6] = 4.5 g·kg^−1 (extract), oral LJ + SN extract
[7] = 4.5 g·kg^−1 extract, oral LJ + SN extract
[8] = 4.73 g/kg, oral LJ + SN + GU extract 4.73 g/kg
[9] = 5.43 g/kg, oral LJ + SN + AS extract 5.43 g/kg
[10] = 8.25 g/kg, oral SYD extract 8.25 g/kg

Work on `COC(=O)C1=CO[C@@H](O[C@@H]2O[C@H](CO)[C@@H](O)[C@H](O)[C@H]2O)[C@@H]2[C@@H](C)[C@@H](O)C[C@H]12` [Loganin, loganin] yielded an AUC(0-inf) [1] of 5510 ± 2000 ng·h/mL, a Cmax [1] of 690 ± 440 ng/mL and an MRT last [1] of 8.17 ± 0.62 h. The MRT inf [1] was 88.5 ± 42.1 h, the Tmax [1] was 1.25 ± 0.59 h and the half-life [1] was 8.07 ± 3.65 h. The AUC(0-t) (2.14 g·kg^−1 extract, oral LJ + GU extract) was 1600 ± 70 ng·h/mL, the AUC(0-t) [2] was 1520 ± 110 ng·h/mL and the AUC(0-inf) [2] was 1670 ± 340 ng·h/mL. It also gave a Cmax [2] of 1140 ± 520 ng/mL, an MRT last [2] of 3.65 ± 1.03 h and an MRT inf [2] of 6.74 ± 6 h. It also gave a Tmax [2] of 1.25 ± 0.59 h, a half-life [2] of 6.71 ± 4.19 h and a Cmax [3] of 660 ± 350 ng/mL. It also gave an MRT last [3] of 7.93 ± 1.33 h, an MRT inf [3] of 80.9 ± 41.5 h and a Tmax [3] of 1.33 ± 0.52 h. It also gave a half-life [3] of 7.89 ± 2.42 h, an AUC(0-t) [4] of 1720 ± 310 ng·h/mL and an AUC(0-inf) [4] of 5400 ± 1940 ng·h/mL. For the same molecule, the AUC(0-t) [5] was 1660 ± 120 ng·h/mL, the AUC(0-inf) [5] was 5350 ± 1940 ng·h/mL and the Cmax [5] was 540 ± 170 ng/mL. It also gave an MRT last [5] of 8.06 ± 0.78 h, an MRT inf [5] of 81.9 ± 41.3 h and a Tmax [5] of 1.5 ± 0.45 h. For the same molecule, the half-life [5] was 7.91 ± 2.17 h, the MRT last [6] was 7.79 ± 1.38 h and the MRT inf [6] was 80 ± 40.2 h. It also gave a Tmax [6] of 1.54 ± 0.56 h, a half-life [6] of 9.39 ± 2.6 h and an AUC(0-t) [7] of 1790 ± 440 ng·h/mL. The AUC(0-inf) [7] was 5470 ± 2060 ng·h/mL, the Cmax [7] was 680 ± 100 ng/mL and the AUC(0-t) [8] was 1840 ± 450 ng·h/mL. For the same molecule, the AUC(0-inf) [8] was 5510 ± 2020 ng·h/mL, the Cmax [8] was 720 ± 450 ng/mL and the MRT last [8] was 7.72 ± 1.48 h. For the same molecule, the MRT inf [8] was 79.3 ± 40.8 h, the Tmax [8] was 1.5 ± 0.45 h and the half-life [8] was 6.83 ± 2.11 h. The AUC(0-t) [9] was 1160 ± 780 ng·h/mL, the AUC(0-inf) [9] was 1180 ± 770 ng·h/mL and the Cmax [9] was 660 ± 483 ng/mL. The MRT last [9] was 2.5 ± 0.7 h, the MRT inf [9] was 4.07 ± 3.93 h and the Tmax [9] was 1.5 ± 0.45 h. The half-life [9] was 6.25 ± 4.29 h, the AUC(0-t) [10] was 1980 ± 1380 ng·h/mL and the AUC(0-inf) [10] was 2170 ± 1400 ng·h/mL. The Cmax [10] was 770 ± 460 ng/mL, the MRT last [10] was 4.71 ± 1.34 h and the MRT inf [10] was 8.87 ± 8.1 h. It also gave a half-life [10] of 7.45 ± 3.39 h.
